According to ChEMBL document CHEMBL6092168, “Identification of novel indolinone derivatives as CTSC inhibitors to treat inflammatory bowel disease by modulating inflammatory factors” (Eur J Med Chem, 2024):
Active and inactive are the calls of the source. The calls are words filed in the database; no cut-off is given here.

Columns and labels:
RAW264.7 [1] = experiment: Anti-inflammatory activity in mouse RAW264.7 cells assessed as inhibition of LPS-induced NO production preincubated for 1 hr followed by LPS addition and measured after 24 hrs by Griess reagent based assay; assay type: functional, cell-based
RAW264.7 [2] = experiment: Anti-inflammatory activity in mouse RAW264.7 cells assessed as inhibition of LPS-induced IL-1beta production at 5 uM preincubated for 1 hr followed by LPS addition and measured after 24 hrs by ELISA relative to control; assay type: functional; parameters: scale not given: the % may be the effect or the level left
RAW264.7 [3] = experiment: Anti-inflammatory activity in mouse RAW264.7 cells assessed as inhibition of LPS-induced TNF-alpha production at 5 uM preincubated for 1 hr followed by LPS addition and measured after 24 hrs by ELISA relative to control; assay type: functional; parameters: scale not given: the % may be the effect or the level left
Dipeptidyl peptidase 1 [4] = target: T1, Dipeptidyl peptidase 1 (Homo sapiens, UniProt P53634); experiment: Inhibition of Cathepsin C in human U-937 cells using H-Gly-Arg-AMC as substrate at 10 uM incubated for 5 days by fluorescence based microplate reader analysis relative to control; assay type: cell-based; details: time 5.0 day
[5] = target: T2, Cathepsin G (Homo sapiens) (UniProt P08311); experiment: Inhibition of Cathepsin G in human U-937 cells using N-Suc-Ala-Ala-Pro-Phe-pNA as substrate at 10 uM incubated for 5 days by […] based microplate reader analysis relative to control; assay type: cell-based; details: time 5.0 day
T2 sequence (whole entry): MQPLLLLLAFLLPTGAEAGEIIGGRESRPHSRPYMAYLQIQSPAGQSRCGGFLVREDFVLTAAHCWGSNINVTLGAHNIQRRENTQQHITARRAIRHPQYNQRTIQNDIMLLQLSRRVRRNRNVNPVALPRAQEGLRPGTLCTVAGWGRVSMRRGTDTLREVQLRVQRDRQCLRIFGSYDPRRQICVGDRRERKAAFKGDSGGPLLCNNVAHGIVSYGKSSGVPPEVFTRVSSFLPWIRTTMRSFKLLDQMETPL

[6] = target: T3, Neutrophil elastase (Homo sapiens) (UniProt P08246); experiment: Inhibition of neutrophil elastase in human U-937 cells using N-MeSuc-Ala-Pro-Val-pNA as substrate at 10 uM incubated for 5 days by […] based microplate reader analysis relative to control; assay type: cell-based; details: time 5.0 day
T3 sequence (whole entry): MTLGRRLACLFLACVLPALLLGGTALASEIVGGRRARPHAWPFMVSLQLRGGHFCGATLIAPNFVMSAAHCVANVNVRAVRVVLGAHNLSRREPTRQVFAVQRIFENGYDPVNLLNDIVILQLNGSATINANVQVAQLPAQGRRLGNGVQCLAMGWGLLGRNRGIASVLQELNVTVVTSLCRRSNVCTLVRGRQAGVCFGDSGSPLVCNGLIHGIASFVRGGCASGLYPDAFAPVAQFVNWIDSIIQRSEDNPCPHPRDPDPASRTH

[7] = target: T4, Myeloblastin (Homo sapiens) (UniProt P24158); experiment: Inhibition of proteinase 3 in human U-937 cells using aminobenzoyl-Val-Ala-Asp-Cys-Ala-Asp-Gln-ethylenediamine 2,4-dinitrophenyl as substrate at 10 uM incubated for 5 days by fluorescence based microplate reader analysis relative to control; assay type: cell-based; details: time 5.0 day
T4 sequence (whole entry): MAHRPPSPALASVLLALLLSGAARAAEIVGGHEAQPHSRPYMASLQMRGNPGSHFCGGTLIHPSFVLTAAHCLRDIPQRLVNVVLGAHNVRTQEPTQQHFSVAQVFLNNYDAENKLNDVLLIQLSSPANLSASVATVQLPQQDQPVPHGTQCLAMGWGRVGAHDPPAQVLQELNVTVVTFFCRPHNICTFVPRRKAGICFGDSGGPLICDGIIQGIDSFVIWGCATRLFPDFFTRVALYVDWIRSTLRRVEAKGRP

Mus musculus [8] = experiment: Anti-inflammatory activity in DSS-induced ulcerative colitis C57BL/6 mouse model assessed as effect on Cathepsin C activity at 60 mg/kg, administered twice daily; assay type: functional, organism-based
Mus musculus [9] = experiment: Anti-inflammatory activity in DSS-induced ulcerative colitis C57BL/6 mouse model assessed as effect on neutrophil serine proteases level at 60 mg/kg, administered twice daily; assay type: functional, organism-based
Dipeptidyl peptidase 1 [10] = target: T1, Dipeptidyl peptidase 1; experiment: Inhibition of human recombinant Cathepsin C using Gly-Phe-AFC as substrate preincubated for 3 hrs followed by substrate addition and measured after 1 hr by fluorescence based multifunctional microplate reader analysis
Mus musculus [11] = experiment: Anti-inflammatory activity in DSS-induced ulcerative colitis male C57BL/6 mouse model assessed as reduction in Cathepsin C level in serum at 60 mg/kg administered via gavage for 10 days relative to control; assay type: functional; details: time 10.0 day
Mus musculus [12] = experiment: Anti-inflammatory activity in DSS-induced ulcerative colitis male C57BL/6 mouse model assessed as reduction in neutrophil elastase level in serum at 60 mg/kg administered via gavage for 10 days relative to control; assay type: functional; details: time 10.0 day
Mus musculus [13] = experiment: Anti-inflammatory activity in DSS-induced ulcerative colitis male C57BL/6 mouse model assessed as reduction in Cathepsin G level in serum at 60 mg/kg administered via gavage for 10 days relative to control; assay type: functional; details: time 10.0 day
Mus musculus [14] = experiment: Anti-inflammatory activity in DSS-induced ulcerative colitis male C57BL/6 mouse model assessed as reduction in Cathepsin C level in colon at 60 mg/kg administered via gavage for 10 days; assay type: functional; details: time 10.0 day
Mus musculus [15] = experiment: Anti-inflammatory activity in DSS-induced ulcerative colitis male C57BL/6 mouse model assessed as reduction in neutrophil elastase level in colon at 60 mg/kg administered via gavage for 10 days relative to control; assay type: functional; details: time 10.0 day
Mus musculus [16] = experiment: Anti-inflammatory activity in DSS-induced ulcerative colitis male C57BL/6 mouse model assessed as reduction in proteinase 3 level in colon at 60 mg/kg administered via gavage for 10 days relative to control; assay type: functional; details: time 10.0 day
Mus musculus [17] = experiment: Anti-inflammatory activity in DSS-induced ulcerative colitis male C57BL/6 mouse model assessed as reduction in Cathepsin G level in colon at 60 mg/kg administered via gavage for 10 days relative to control; assay type: functional; details: time 10.0 day

T1 sequence (P53634 25-134 limits assumed): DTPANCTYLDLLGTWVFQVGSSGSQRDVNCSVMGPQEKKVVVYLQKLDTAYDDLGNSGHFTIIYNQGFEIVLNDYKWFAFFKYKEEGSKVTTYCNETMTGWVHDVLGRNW
T1 sequence (P53634 231-394 limits assumed): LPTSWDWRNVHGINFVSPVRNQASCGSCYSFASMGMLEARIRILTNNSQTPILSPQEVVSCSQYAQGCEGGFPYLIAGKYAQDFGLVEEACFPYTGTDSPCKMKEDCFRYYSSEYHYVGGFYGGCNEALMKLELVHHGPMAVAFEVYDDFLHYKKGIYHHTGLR
T1 sequence (P53634 395-463 limits assumed): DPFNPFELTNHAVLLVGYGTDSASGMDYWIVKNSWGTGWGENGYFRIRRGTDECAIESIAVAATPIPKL

| SMILES | IC50 (RAW264.7 [1]) [µM] | Activity (RAW264.7 [2]; time 25 hrs) [%] | Activity (RAW264.7 [3]; time 25 hrs) [%] | IC50 (Dipeptidyl peptidase 1 [10]) [nM] | Activity (RAW264.7 [2]; time 25.0 hrs) | Activity (RAW264.7 [3]; time 25.0 hrs) | other results |
| --- | --- | --- | --- | --- | --- | --- | --- |
| Cn1c(=O)oc2ccc(-c3ccc(C[C@@H](C#N)NC(=O)[C@@H]4CNCCCO4)cc3)cc21 [BRENSOCATIB] | 6.7 | 70.9 | 65.1 | – | – | – | inhibition (Dipeptidyl peptidase 1 [4]): 10.1%; inhibition [5]: 12.1%; inhibition [6]: 8.29%; inhibition [7]: 16.7%; Activity (Mus musculus [8]): Active; Activity (Mus musculus [9]): Active |
| CN1CCN(Cc2ccc(-c3cccc4c3NC(=O)/C4=C\c3ccnc4ccccc34)cc2)CC1 | 3.2 | 80.4 | 70.4 | 161 | – | – | – |
| Nc1cccc(NC(=O)c2cccc(-c3ccc(CN4CCOCC4)cc3)c2)c1 | > 50 | – | – | > 1000 | inactive | inactive | – |
| CC(C)c1ccc(NC(=O)c2cccc(-c3ccc(CN4CCOCC4)cc3)c2)cc1 | > 50 | – | – | > 1000 | inactive | inactive | – |
| O=C1Nc2c(cccc2-c2ccc3cn[nH]c3c2)/C1=C/c1ccnc2ccccc12 | 14.8 | 65.3 | 43.3 | 311 | – | – | – |
| O=C(Nc1nccc2ccccc12)c1cccc(-c2ccc(CN3CCOCC3)cc2)c1 | 8.7 | 70.6 | 67.7 | 262 | – | – | – |
| O=C(Nc1ccnc2ccccc12)c1cccc(-c2ccc(CN3CCOCC3)cc2)c1 | 9.4 | 75.7 | 70.6 | 240 | – | – | – |
| Nc1ccc(O)c(C(=O)O)c1 | – | – | – | – | – | – | Activity (Mus musculus [11]): Active; Activity (Mus musculus [12]): Active; Activity (Mus musculus [13]): Active; Activity (Mus musculus [14]): Active; Activity (Mus musculus [15]): Active; Activity (Mus musculus [16]): Active; Activity (Mus musculus [17]): Active |
| O=C1Nc2c(cccc2-c2ccc(C(=O)N3CCOCC3)cc2)/C1=C/c1ccnc2ccccc12 | 8.6 | 65.2 | 58.1 | 182 | – | – | – |
| CNC(=O)c1ccc(NC(=O)c2cccc(-c3ccc(CN4CCOCC4)cc3)c2)cc1 | > 50 | – | – | > 1000 | inactive | inactive | – |
| CC(=O)c1cccc(NC(=O)c2cccc(-c3ccc(CN4CCOCC4)cc3)c2)c1 | 20.2 | 47.4 | 50.3 | 292 | – | – | – |
| O=C1Nc2c(cccc2-c2ccc3[nH]ccc3c2)/C1=C/c1ccnc2ccccc12 | 6.8 | 63.5 | 43.2 | 195 | – | – | – |
| CCc1ccccc1NC(=O)c1cccc(-c2ccc(CN3CCOCC3)cc2)c1 | > 50 | – | – | > 1000 | inactive | inactive | – |
| Nc1ccc(-c2cccc3c2NC(=O)/C3=C\c2ccnc3ccccc23)cc1 | 8.1 | – | – | 493 | inactive | inactive | – |
| O=C(Nc1ccc2ccccc2c1)c1cccc(-c2ccc(CN3CCOCC3)cc2)c1 | 7.6 | 68.8 | 63.2 | 223 | – | – | – |
| Nc1c(C(=O)Nc2ccc3ccccc3c2)cccc1-c1ccc(CN2CCOCC2)cc1 | 6.1 | 64.2 | 69.7 | 310 | – | – | – |
| N#Cc1ccc(-c2cccc3c2NC(=O)/C3=C\c2ccnc3ccccc23)cc1 | > 50 | – | – | > 1000 | inactive | inactive | – |
| O=C1Nc2c(cccc2-c2ccc(CN3CCNCC3)cc2)/C1=C/c1ccnc2ccccc12 | 5.1 | 82.5 | 68.7 | 128 | – | – | – |
| Cc1ccc(NC(=O)c2cccc(-c3ccc(CN4CCOCC4)cc3)c2)cc1 | > 50 | – | – | > 1000 | inactive | inactive | – |
| CCc1ccc(-c2cccc3c2NC(=O)/C3=C\c2ccnc3ccccc23)cc1 | > 50 | – | – | > 1000 | inactive | inactive | – |
| O=C(Nc1ccnc2ccccc12)c1cccc(-c2ccc(CN3CCOCC3)cc2)n1 | 2.9 | 70.2 | 62.2 | 273 | – | – | – |
| COc1ccc(NC(=O)c2cccc(-c3ccc(CN4CCOCC4)cc3)c2)cc1 | > 50 | – | – | 731 | inactive | inactive | – |
| CC(=O)Nc1cccc(NC(=O)c2cccc(-c3ccc(CN4CCOCC4)cc3)c2)c1 | > 50 | – | – | > 1000 | inactive | inactive | – |
| O=C1Nc2c(cccc2-c2ccc(F)cc2)/C1=C/c1ccnc2ccccc12 | 37.2 | – | – | > 1000 | inactive | inactive | – |
| CNC(=O)c1cccc(NC(=O)c2cccc(-c3ccc(CN4CCOCC4)cc3)c2)c1 | > 50 | – | – | > 1000 | inactive | inactive | – |
| CC(=O)Nc1ccc(NC(=O)c2cccc(-c3ccc(CN4CCOCC4)cc3)c2)cc1 | > 50 | – | – | 770 | inactive | inactive | – |
| Nc1c(C(=O)Nc2cccc3ccccc23)cccc1-c1ccc(CN2CCOCC2)cc1 | 8.4 | 67.1 | 40.1 | 272 | – | – | – |
